# According to US20220119354A1, “DIAMINO-SUBSTITUTED PYRIDINES AND PYRIMIDINES AS HERBICIDES” (FMC Corporation, priority 2019, published 2022):
# Experiments:
# Assay type in all cases: in vivo
# [1] = test system: foxtail, giant (Setaria faberii); assay: Test A preemergence, giant foxtail; details: 0 to 100 scale, 0 is no effect, 100 is complete control
# In short: (§1)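 Steps: plant seeds in loam/sand; spray soil (pre) or seedlings at 1–2 leaves, 2–10 cm (post) with compound in solvent plus surfactant; keep in greenhouse ~10 d; score injury visually against untreated controls, 0–100.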
# [2] = test system: pigweed (Amaranthus retroflexus); assay: Test A preemergence, pigweed; details: 0 to 100 scale, 0 is no effect, 100 is complete control
# In short: as §1
# [3] = test system: ragweed (common ragweed, Ambrosia elatior); assay: Test A preemergence, ragweed; details: 0 to 100 scale, 0 is no effect, 100 is complete control
# In short: as §1
# [4] = test system: barnyardgrass (Echinochloa crus-galli); assay: Test A postemergence, barnyardgrass; details: 0 to 100 scale, 0 no effect, 100 complete control
# In short: as §1
# kochia (Kochia scoparia) [5] = assay: Test A postemergence, kochia; details: 0 to 100 scale, 0 no effect, 100 complete control
# In short: as §1
# rice (Oryza sativa) = assay: Test B flooded paddy test, rice; details: Flood, 250 g ai/ha, applied to paddy water, 2-leaf stage, visual evaluation after 13 to 15 d
# In short: (§2)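 Each response is a visual 0–100 rating made against untreated controls, where 0 is no effect and 100 is complete control; a dash marks no result. Compound was dosed into 3 cm paddy water over 2-leaf plants, assessed after 13 to 15 d.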
# [6] = test system: sedge, umbrella (small-flower umbrella sedge, Cyperus difformis); assay: Test B flooded paddy test, umbrella sedge; details: Flood, 250 g ai/ha, applied to paddy water, 2-leaf stage, visual evaluation after 13 to 15 d
# In short: as §2
# [7] = test system: foxtail, giant (Setaria faberii); assay: Test A postemergence, giant foxtail; details: 0 to 100 scale, 0 no effect, 100 complete control
# In short: as §1
# [8] = test system: pigweed (Amaranthus retroflexus); assay: Test A postemergence, pigweed; details: 0 to 100 scale, 0 no effect, 100 complete control
# In short: as §1
# kochia (Kochia scoparia) [9] = assay: Test A preemergence, kochia; details: 0 to 100 scale, 0 is no effect, 100 is complete control
# In short: as §1
# [10] = test system: ragweed (common ragweed, Ambrosia elatior); assay: Test A postemergence, ragweed; details: 0 to 100 scale, 0 no effect, 100 complete control
# In short: as §1
# [11] = test system: ryegrass, Italian (Lolium multiflorum); assay: Test A preemergence, Italian ryegrass; details: 0 to 100 scale, 0 is no effect, 100 is complete control
# In short: as §1
# [12] = test system: wheat (Triticum aestivum); assay: Test A postemergence, wheat; details: 0 to 100 scale, 0 no effect, 100 complete control
# In short: as §1
# [13] = test system: barnyardgrass (Echinochloa crus-galli); assay: Test B flooded paddy test, barnyardgrass; details: Flood, 250 g ai/ha, applied to paddy water, 2-leaf stage, visual evaluation after 13 to 15 d
# In short: as §2
# [14] = test system: ducksalad (Heteranthera limosa); assay: Test B flooded paddy test, ducksalad; details: Flood, 250 g ai/ha, applied to paddy water, 2-leaf stage, visual evaluation after 13 to 15 d
# In short: as §2
# [15] = test system: blackgrass (Alopecurus myosuroides); assay: Test A postemergence, blackgrass; details: 0 to 100 scale, 0 no effect, 100 complete control
# In short: as §1
# [16] = test system: galium (catchweed bedstraw, Galium aparine); assay: Test A postemergence, galium; details: 0 to 100 scale, 0 no effect, 100 complete control
# In short: as §1
# corn (Zea mays) = assay: Test A postemergence, corn; details: 0 to 100 scale, 0 no effect, 100 complete control
# In short: as §1
# [17] = test system: ryegrass, Italian (Lolium multiflorum); assay: Test A postemergence, Italian ryegrass; details: 0 to 100 scale, 0 no effect, 100 complete control
# In short: as §1
# [18] = test system: barnyardgrass (Echinochloa crus-galli); assay: Test A preemergence, barnyardgrass; details: 0 to 100 scale, 0 is no effect, 100 is complete control
# In short: as §1
Structure (SMILES),"Foxtail, Giant plant response rating ([1]; 125 g ai/ha)","Foxtail, Giant plant response rating ([1]; 500 g ai/ha)",Pigweed plant response rating ([2]; 125 g ai/ha),Pigweed plant response rating ([2]; 500 g ai/ha),Ragweed plant response rating ([3]; 125 g ai/ha),Ragweed plant response rating ([3]; 500 g ai/ha),"Plant response rating, Barnyardgrass ([4]; 125 g ai/ha)","Plant response rating, Barnyardgrass ([4]; 500 g ai/ha)","Plant response rating, Kochia (kochia (Kochia scoparia) [5]; 125 g ai/ha)","Plant response rating, Kochia (kochia (Kochia scoparia) [5]; 500 g ai/ha)","Plant response rating, Rice (0 to 100 scale, 0 is no effect, 100 is complete control) (rice (Oryza sativa))","Plant response rating, Sedge, Umbrella (0 to 100 scale, 0 is no effect, 100 is complete control) [6]","Plant response rating, Foxtail, Giant ([7]; 125 g ai/ha)","Plant response rating, Foxtail, Giant ([7]; 500 g ai/ha)","Plant response rating, Pigweed ([8]; 125 g ai/ha)","Plant response rating, Pigweed ([8]; 500 g ai/ha)",Kochia plant response rating (kochia (Kochia scoparia) [9]; 125 g ai/ha),Kochia plant response rating (kochia (Kochia scoparia) [9]; 500 g ai/ha),"Plant response rating, Ragweed ([10]; 125 g ai/ha)","Plant response rating, Ragweed ([10]; 500 g ai/ha)",further results
C[C@H](Nc1nc(N)c(C(F)(F)F)c(C(F)(F)F)n1)C1Cc2ccccc2C1 [Compound 68],0,0,0,0,0,0,0,0,20,40,0,0,0,0,0,0,0,0,40,50,"Ryegrass, Italian plant response rating ([11]; 125 g ai/ha): 0; Ryegrass, Italian plant response rating ([11]; 500 g ai/ha): 0; Plant response rating, Wheat ([12]; 125 g ai/ha): 0; Plant response rating, Wheat ([12]; 500 g ai/ha): 0; Plant response rating, Barnyardgrass (0 to 100 scale, 0 is no effect, 100 is complete control) [13]: 0; Plant response rating, Ducksalad (0 to 100 scale, 0 is no effect, 100 is complete control) [14]: 0; Plant response rating, Blackgrass ([15]; 125 g ai/ha): 0; Plant response rating, Blackgrass ([15]; 500 g ai/ha): 0; Plant response rating, Galium ([16]; 125 g ai/ha): 0; Plant response rating, Galium ([16]; 500 g ai/ha): 0; Plant response rating, Corn (corn (Zea mays); 125 g ai/ha): 20; Plant response rating, Corn (corn (Zea mays); 500 g ai/ha): 0; Plant response rating, Ryegrass, Italian ([17]; 125 g ai/ha): 0; Plant response rating, Ryegrass, Italian ([17]; 500 g ai/ha): 0; Barnyardgrass plant response rating ([18]; 125 g ai/ha): 0; Barnyardgrass plant response rating ([18]; 500 g ai/ha): 0"
CC[C@H](Nc1ncc(C(F)(F)F)c(N)n1)c1cc2ccc(F)cc2o1 [Compound 64],0,0,0,0,0,0,0,20,0,30,0,0,0,0,20,60,0,0,0,20,"Ryegrass, Italian plant response rating ([11]; 125 g ai/ha): 0; Ryegrass, Italian plant response rating ([11]; 500 g ai/ha): 0; Plant response rating, Wheat ([12]; 125 g ai/ha): 0; Plant response rating, Wheat ([12]; 500 g ai/ha): 0; Plant response rating, Barnyardgrass (0 to 100 scale, 0 is no effect, 100 is complete control) [13]: 0; Plant response rating, Ducksalad (0 to 100 scale, 0 is no effect, 100 is complete control) [14]: 0; Plant response rating, Blackgrass ([15]; 125 g ai/ha): 0; Plant response rating, Blackgrass ([15]; 500 g ai/ha): 0; Plant response rating, Galium ([16]; 125 g ai/ha): 0; Plant response rating, Galium ([16]; 500 g ai/ha): 30; Plant response rating, Corn (corn (Zea mays); 125 g ai/ha): 0; Plant response rating, Corn (corn (Zea mays); 500 g ai/ha): 0; Plant response rating, Ryegrass, Italian ([17]; 125 g ai/ha): 0; Plant response rating, Ryegrass, Italian ([17]; 500 g ai/ha): 0; Barnyardgrass plant response rating ([18]; 125 g ai/ha): 0; Barnyardgrass plant response rating ([18]; 500 g ai/ha): 0"
C[C@@H](Nc1ncc(C(F)(F)F)c(N)n1)c1cc2ccccc2n1C [Compound 98],0,40,0,100,20,80,0,0,20,40,0,0,0,0,60,90,0,0,30,60,"Ryegrass, Italian plant response rating ([11]; 125 g ai/ha): 20; Ryegrass, Italian plant response rating ([11]; 500 g ai/ha): 40; Plant response rating, Wheat ([12]; 125 g ai/ha): 0; Plant response rating, Wheat ([12]; 500 g ai/ha): 0; Plant response rating, Barnyardgrass (0 to 100 scale, 0 is no effect, 100 is complete control) [13]: 0; Plant response rating, Ducksalad (0 to 100 scale, 0 is no effect, 100 is complete control) [14]: 0; Plant response rating, Blackgrass ([15]; 125 g ai/ha): 0; Plant response rating, Blackgrass ([15]; 500 g ai/ha): 0; Plant response rating, Galium ([16]; 125 g ai/ha): 50; Plant response rating, Galium ([16]; 500 g ai/ha): 70; Plant response rating, Corn (corn (Zea mays); 125 g ai/ha): 0; Plant response rating, Corn (corn (Zea mays); 500 g ai/ha): 0; Plant response rating, Ryegrass, Italian ([17]; 125 g ai/ha): 0; Plant response rating, Ryegrass, Italian ([17]; 500 g ai/ha): 0; Barnyardgrass plant response rating ([18]; 125 g ai/ha): 20; Barnyardgrass plant response rating ([18]; 500 g ai/ha): 50"
